The values that follow are results of earlier work, collected in patent US6541424B2, “Manufacture and use of a herbicide formulation” (Helena Chemical Company, priority 2000, dated 2003).

In the case of `O=C(O)CNCP(=O)(O)O` [Glyphosate], the solubility in water entry is listed as “approximately 1.2%”.
